This passage reports IC50 results from US11319303B2 (WIGEN BIOMEDICINE TECHNOLOGY (SHANGHAI) CO., LTD., priority 2017, dated 2022).

Counter-ions that a name gives are not always drawn.

The target of this test is LC3B (Homo sapiens, UniProt Q9GZQ8). Description: Fluorescence Polarization (FP) Assay: displacement of FITC-labeled peptide from GST-LC3B. In kind it is binding. The following applies: Fluorescence Polarization assay; GST-LC3B 180 nM, FITC-labeled peptide 18 nM, 25° C.; read-out: IC50. As for the experimental part: The compounds of the present invention for regulating the autophagy-related protein LC3B were tested by Fluorescence Polarization (FP) Assay.
Fluorescence Polarization (FP) Assay Test
As to `O=C(O)CNC(=O)CNC=C1C(=O)CC(c2ccccc2)CC1=O` (centres unmarked) [Compound 210, ((2,6-dioxo-4-phenylcyclo-hexylidene)methyl) glycylglycine], the IC50 fell in the range of 15 to 100 µM.

In the case of `Cc1cccc2c(C3CC(=O)C(=CN(C)C)C(=O)C3)c[nH]c12` (centres unmarked) [Compound 297, 2-((dimethylamino)methylene)-5-(7-methyl-1H-indol-3-yl)cyclohexane-1,3-dione], the IC50 is < 3 µM. The value for `O=C1CCN(c2ccccc2)C(=O)/C1=C\NCCN1CCN(CCO)CC1` [Compound 99, 3-(((2-(4-(2-hydroxyethyl)piperazin-1-yl)ethyl)amino)methylene)-1-phenylpiperidine-2,4-dione] was 100 to 1000 µM. Under `O=C1Nc2c(cccc2[N+](=O)[O-])C(=O)/C1=C/NCCN1CCN(CCO)CC1` [Compound 318, 3-(((2-(4-(2-hydroxyethyl)piperazin-1-yl)ethyl)amino)methylene)-8-nitroquinoline-2,4(1H,3H)-dione] stands < 3 µM; under `CN(C)CCNC=C1C(=O)CC(c2ccccc2)C(F)C1=O` (centres unmarked) [Compound 209, 2-(((2-(dimethylamino)ethyl)amino)methylene)-4-fluoro-5-phenylcyclohexane-1,3-dione], < 3 µM; under `CN(C)C=C1C(=O)CC(c2ccc(Cl)nc2)CC1=O` (centres unmarked) [Compound 266, 5-(6-chloropyridin-3-yl)-2-((dimethylamino)methylene) cyclohexane-1,3-dione], 3 to 15 µM. The value for `O=C1CC(c2ccccc2)CC(=O)C1=CNCCCCO` (centres unmarked) [Compound 132, 2-(((4-hydroxybutyl)amino)methylene)-5-phenylcyclohexane-1,3-dione] was 100 to 1000 µM; that for `O=C1CC(c2ccccc2)CC(=O)C1=CNc1cccc2c1CNC2=O` (centres unmarked) [Compound 355, 2-(((1-oxoisoindolin-4-yl)amino)methylene)-5-phenylcyclohexane-1,3-dione] was < 3 µM; that for `O=C1CC(c2cc3[nH]ccc3cc2Br)CC(=O)C1=CNCCN1CCN(CCO)CC1` (centres unmarked) [Compound 392, 5-(5-bromo-1H -indol-6-yl)-2-(((2-(4-(2-ethoxyl)piperazin-1-yl)ethyl)amino)methylene) cyclohexane-1,3-dione] was < 3 µM. In the case of `O=C1CCC(c2ccc(F)cc2)C(=O)C1=CNCCN1CCN(CCO)CC1` (centres unmarked) [Compound 100, 4-(4-fluorophenyl)-2-(((2-(4-(2-hydroxyethyl)piperazin-1-yl)ethyl)amino)methylene)cyclohexane-1,3-dione], the IC50 lay within 15 to 100 µM.

On to `CN(C)CCNC=C1C(=O)CC(c2ccc(F)cc2Br)CC1=O` (centres unmarked) [Compound 305, 5-(2-bromo-4-fluorophenyl)-2-(((2-(dimethylamino)ethyl)amino)methylene) cyclohexane-1,3-dione], for which the 50% inhibitory concentration (IC50) is < 3 µM. As for `Cc1ccc(Cc2ccccc2C2CC(=O)C(=CN(C)C)C(=O)C2)cc1` (centres unmarked) [Compound 291, 2-((dimethylamino)methylene)-5-(2-(4-methylbenzyl)phenyl) cyclohexane-1,3-dione], the IC50 fell in the range of 3 to 15 µM.

Take `Cc1ccc(C2CC(=O)C(=CNCCN3CCN(CCO)CC3)C(=O)C2)cc1` (centres unmarked) [Compound 229, 2-(((2-(4-(2-hydroxyethyl)piperazin-1-yl)ethyl)amino)methylene)-5-(p-tolyl) cyclohexane-1,3-dione]: the 50% inhibitory concentration (IC50) was < 3 µM. Under `O=C1CC(c2ccsc2)CC(=O)C1=CO` (centres unmarked) [Compound 458, 2-(hydroxy-methylene)-5-(3-thiophen)cyclo-hexane-1,3-dione potassium salt] stands 3 to 15 µM; under `O=C1CC(CCc2ccc3c(c2)OCO3)CC(=O)C1=CO` (centres unmarked) [Compound 445, 2-(hydroxymethylene)-5-(2-(benzo[d] [1,3]dioxo-5-yl)ethyl)-cyclohexane-1,3-dione], 15 to 100 µM; under `O=C1CC(C(O)c2ccccc2)C(=O)/C1=C\NCCN1CCN(CCO)CC1` (centres unmarked) [Compound 391, 4-(hydroxy(phenyl)methyl)-2-(((2-(4-(2-ethoxyl)piperazin-1-yl)ethyl)amino)methylene) cyclopentane-1,3-dione], 15 to 100 µM. Consider `CN(C)C=C1C(=O)CC(c2csc3ccccc23)CC1=O` (centres unmarked) [Compound 282, 5-(benzo[b]thiophen-3-yl)-2-((dimethylamino)methylene) cyclohexane-1,3-dione], for which the IC50 was < 3 µM. The value for `COc1cccc2c1NC(=O)/C(=C\NCCN1CCN(CCO)CC1)C2=O` [Compound 194, 3-(((2-(4-(2-hydroxyethyl)piperazin-1-yl)ethyl)amino)methylene)-8-methoxyquinoline-2,4(1H,3H)-dione] was 15 to 100 µM.

Turning to `O=C1CC(C(=O)N2CCOCC2)CC(=O)C1=CNCCN1CCN(CCO)CC1` (centres unmarked) [Compound 106, 2-(((2-(4-(2-hydroxyethyl)piperazin-1-yl)ethyl)amino)methylene)-5-(morpholine-4-carbonyl)cyclohexane-1,3-dione], the IC50 was 100 to 1000 µM. Under `O=C1CC(c2ccccc2)CC(=O)C1=CNCc1cc2ccccc2[nH]1` (centres unmarked) [Compound 205, 2-((((1H-indol-2-yl)methyl)amino)methylene)-5-phenylcyclohexane-1,3-dione] stands 100 to 1000 µM; under `O=C1Nc2c(cccc2-c2ccccc2)C(=O)/C1=C\NCCN1CCN(CCO)CC1` [Compound 321, 3-(((2-(4-(2-hydroxyethyl)piperazin-1-yl)ethyl)amino)methylene)-8-phenylquinoline-2,4(1H,3H)-dione], 3 to 15 µM.

As for `O=C1CC(c2ccc(Br)cc2)CC(=O)C1=CO` (centres unmarked) [Compound 438, 2-(hydroxymethylene)-5-(4-bromophenyl)cyclo-hexane-1,3-dione], the IC50 was 3 to 15 µM. `O=C1CC(c2cnc3c(ccc4cccnc43)c2)CC(=O)C1=CNCCN1CCN(CCO)CC1` (centres unmarked) [Compound 20, 2-(((2-(4-(2-hydroxyethyl)piperazin-1-yl)ethyl)amino)methylene)-5-(1,10-phenanthrolin-3-yl)cyclohexane-1,3-dione]: the IC50 fell in the range of 100 to 1000 µM. The value for `CN(C)CCNC=C1C(=O)CC(c2c(F)c(F)cc(F)c2F)CC1=O` (centres unmarked) [Compound 402, 2-(((2-(dimethylamino)ethyl)amino)methylene)-5-(2,3,5,6-tetrafluorophenyl) cyclohexane-1,3-dione] was < 3 µM; that for `CC1(C)O[C@@H]2[C@H](O1)[C@@H](C1CC(=O)C(=CNCCN3CCN(CCO)CC3)C(=O)C1)O[C@H]2n1cnc2c(N3CCOCC3)ncnc21` (stereo partly drawn) [Compound 30, 5-((3aR,4R,6R,6aR)-2,2-dimethyl-6-(6-morpholino-9H-purin-9-yl)tetrahydrofuro[3,4-d][1,3]dioxol-4-yl)-2-(((2-(4-(2-hydroxyethyl)piperazin-1-yl)ethyl)amino)methylene) cyclohexane-1,3-dione] was 100 to 1000 µM; that for `O=C1CC(c2c[nH]c3ccccc23)CC(=O)C1=CO` (centres unmarked) [Compound 430, 2-(hydroxymethylene)-5-(1H-indol-3-yl)cyclohexane-1,3-dione] was < 3 µM. Under `O=C1CC(COc2cccc(F)c2)CC(=O)C1=CNCCN1CCN(CCO)CC1` (centres unmarked) [Compound 32, 5-((3-fluorophenoxy)methyl)-2-(((2-(4-(2-hydroxyethyl)piperazin-1-yl)ethyl)amino)methylene) cyclohexane-1,3-dione] stands 3 to 15 µM. Consider `CN(C)C=C1C(=O)CC(c2cccc3ccccc23)CC1=O` (centres unmarked) [Compound 277, 2-((dimethylamino)methylene)-5-(naphthalen-1-yl)cyclohexane-1,3-dione], for which the IC50 was < 3 µM.

In the case of `CN(C)CCNC=C1C(=O)CC(c2ccccc2)CC1=O` (centres unmarked) [Compound 119, 2-(((2-(dimethylamino)ethyl)amino)methylene)-5-phenylcyclo-hexane-1,3-dione], the IC50 was < 3 µM. Under `Cc1ccccc1C1CC(=O)C(=CNCCN2CCN(CCO)CC2)C(=O)C1` (centres unmarked) [Compound 28, 2-(((2-(4-(2-hydroxyethyl)piperazin-1-yl)ethyl)amino)methylene)-5-(o-tolyl)cyclohexane-1,3-dione] stands 3 to 15 µM. Turning to `CSc1ccc(C2CC(=O)C(=CO)C(=O)C2)cc1` (centres unmarked) [Compound 440, 5-(4-methylthiophenyl)-2-(hydroxymethylene) cyclohexane-1,3-dione], the IC50 was 3 to 15 µM.

`COc1ccccc1C1CC(=O)C(=CO)C(=O)C1` (centres unmarked) [Compound 423, 2-(hydroxymethylene)-5-(2-methoxyphenyl)cyclo-hexane-1,3-dione]: the IC50 was 3 to 15 µM. For `O=C1CC(c2cccc3[nH]cc(-c4ccccc4)c23)CC(=O)C1=CNCCN1CCN(CCO)CC1` (centres unmarked) [Compound 353, 2-(((2-(4-(2-hydroxyethyl)piperazin-1-yl)ethyl)amino)methylene)-5-(3-phenyl-1H-indol-4-yl)cyclohexane-1,3-dione], the IC50 is < 3 µM. Regarding `O=C1Nc2ccc(C(F)(F)F)cc2C(=O)/C1=C/NCCN1CCN(CCO)CC1` [Compound 317, 3-(((2-(4-(2-hydroxyethyl)piperazin-1-yl)ethyl)amino)methylene)-6-(trifluoromethyl) quinoline-2,4(1H,3H)-dione], the concentration for half-maximal inhibition (IC50) is 3 to 15 µM. Under `O=C1CC(c2ccc(Nc3nccs3)nc2)CC(=O)C1=CNCCN1CCN(CCO)CC1` (centres unmarked) [Compound 83, 2-(((2-(4-(2-hydroxyethyl)piperazin-1-yl)ethyl)amino)methylene)-5-(6-(thiazol-2-ylamino)pyridin-3-yl)cyclohexane-1,3-dione] stands 15 to 100 µM.

On to `COC(=O)CNC=C1C(=O)CC(c2ccccc2)CC1=O` (centres unmarked) [Compound 129, methyl ((2,6-dioxo-4-phenylcyclo-hexylidene)methyl)glycinate], for which the IC50 fell in the range of 15 to 100 µM. Under `CN(C)CCNC=C1C(=O)CC(c2c(C(F)(F)F)ccc(Cl)c2Cl)CC1=O` (centres unmarked) [Compound 377, 5-(2,3-dichloro-6-(trifluoromethyl)phenyl)-2-(((2-(dimethylamino)ethyl)amino)methylene) cyclohexane-1,3-dione] stands < 3 µM; under `O=C1CC(c2ccc(C(=O)O)cc2)CC(=O)C1=CNCCN1CCOCC1` (centres unmarked) [Compound 260, 4-(4-(((2-morpholinoethyl)amino)methylene)-3,5-dioxocyclohexyl) benzoic acid], < 3 µM.
